Results taken from ChEMBL document CHEMBL5532665 (J Med Chem, 2024).
Calls of active or inactive are those of the source. The calls are words filed in the database; no cut-off is given here.

Key:
Mu-type opioid receptor = Mu-type opioid receptor (Homo sapiens, UniProt P35372); experiment: Agonist activity at human MOR expressed in CHO-K1 cells co-expressing G-alpha15 by calcium mobilization assay relative to control; assay type: functional, cell-based; settings: filed as agonist
[1] = target: Delta-type opioid receptor (Homo sapiens, UniProt P41143); experiment: Agonist activity at human DOR expressed in CHO-K1 cells co-expressing G-alpha15 by calcium mobilization assay relative to control; assay type: functional, cell-based; settings: filed as agonist
Mus musculus [2] = experiment: Antinociceptive activity in Kunming mouse model at 136.2 nmol/kg, sc in presence of nor-BNI by tail-flick test; assay type: functional, organism-based
[3] = target: T1, Kappa-type opioid receptor (Homo sapiens, UniProt P41145); experiment: Agonist activity at human KOR expressed in CHO-K1 cells co-expressing G-alpha15 by calcium mobilization assay relative to control; assay type: functional, cell-based; settings: filed as agonist
Mus musculus [4] = experiment: Antinociceptive activity in Kunming mouse model at 136.2 nmol/kg, sc in presence of NTI by tail-flick test; assay type: functional, organism-based
Mus musculus [5] = experiment: Antinociceptive activity in Kunming mouse model at 136.2 nmol/kg, sc pretreated with NALM subcutaneously followed by compound administration by tail-flick test; assay type: functional, organism-based
Mus musculus [6] = experiment: Antinociceptive activity in Kunming mouse model at 136.2 nmol/kg, sc pretreated with NALM intracerebroventricularly followed by compound administration by tail-flick test; assay type: functional, organism-based
Mus musculus [7] = experiment: Antinociceptive activity in Kunming mouse model at 136.2 nmol/kg, sc in presence of beta-FNA by tail-flick test; assay type: functional, organism-based
Mus musculus [8] = experiment: Antinociceptive activity in Kunming mouse model at 1.4 nmol/kg, sc pretreated with NALM intracerebroventricularly followed by compound administration by tail-flick test; assay type: functional, organism-based
Mus musculus [9] = experiment: Antinociception activity in Kunming mouse model assessed as analgesic effect at 1.4 nmol/kg, sc administered daily measured for 8 days by tail-flick test; assay type: functional, organism-based; settings: time 8.0 day
Mus musculus [10] = experiment: Antinociceptive activity in Kunming mouse model at 1.4 nmol/kg, sc in presence of NTI by tail-flick test; assay type: functional, organism-based
Mus musculus [11] = experiment: Antinociceptive activity in Kunming mouse model at 1.4 nmol/kg, sc in presence of nor-BNI by tail-flick test; assay type: functional, organism-based
Mus musculus [12] = experiment: Antinociceptive activity in Kunming mouse model assessed as increase in analgesic effect at 0.014 to 1.4 nmol/kg, sc measured for 180 to 360 mins by tail-flick test; assay type: functional, organism-based; settings: dose 0.014-1.4 nmol/kg, time 180-360 min
Mus musculus [13] = experiment: Antinociception activity in Kunming mouse model assessed as analgesic effect at 1.4 nmol/kg, sc administered daily measured for 8 days in presence of NTI by tail-flick test; assay type: functional, organism-based; settings: time 8.0 day
Mus musculus [14] = experiment: Induction of physical dependence in Kunming mouse model assessed as jumping behavior at 0.2 to 10 nmol/kg, sc administered as 7 escalating doses with 8 hr-intervals in-between followed by Nal administration post-2 hrs of last compound dose and further measured for 30 mins by withdrawal assay; assay type: functional, organism-based; settings: dose 0.2-10 nmol/kg, time 50.5 hrs
Mus musculus [15] = experiment: Rewarding affect in Kunming mouse model at 13.8 nmol/kg, sc pre-exposed to place conditioning for 3 days followed by compound administration and further re-exposed to place conditioning measured on day 5 by unbiased CPP method; assay type: functional, organism-based; settings: time 2.0 day
Mus musculus [16] = experiment: Antinociceptive activity in Kunming mouse model at 1.4 nmol/kg, sc pretreated with NALM subcutaneously followed by compound administration by tail-flick test; assay type: functional, organism-based
Mus musculus [17] = experiment: Antinociceptive activity in Kunming mouse model at 1.4 nmol/kg, sc in presence of beta-FNA by tail-flick test; assay type: functional, organism-based
Mus musculus [18] = experiment: Antinociceptive activity in Kunming mouse model assessed as latency of tail withdrawal at 136.2 nmol/kg, sc measured for 120 mins by tail-flick test relative to control; assay type: functional; settings: 2 h
Mus musculus [19] = experiment: Antinociceptive activity in Kunming mouse model assessed as latency of tail withdrawal at 136.2 nmol/kg, sc measured for 10 mins by tail-flick test relative to control; assay type: functional
Mus musculus [20] = experiment: Antinociceptive activity in Kunming mouse model assessed as latency of tail withdrawal at 136.2 nmol/kg, sc measured for 30 mins by tail-flick test relative to control; assay type: functional; settings: 0.5 h
Mus musculus [21] = experiment: Antinociceptive activity in Kunming mouse model assessed as latency of tail withdrawal at 136.2 nmol/kg, sc measured for 60 mins by tail-flick test relative to control; assay type: functional; settings: 1 h
Mus musculus [22] = experiment: Antinociceptive activity in Kunming mouse model at 132.2 nmol/kg, sc pretreated with NALM intracerebroventricularly followed by compound administration by tail-flick test; assay type: functional, organism-based
Mus musculus [23] = experiment: Antinociceptive activity in Kunming mouse model at 132.2 nmol/kg, sc in presence of beta-FNA by tail-flick test; assay type: functional, organism-based
Mus musculus [24] = experiment: Antinociceptive activity in Kunming mouse model at 132.2 nmol/kg, sc in presence of nor-BNI by tail-flick test; assay type: functional, organism-based
[25] = target: T1, Kappa-type opioid receptor; experiment: Agonist activity at human KOR expressed in CHO-K1 cells co-expressing G-alpha15 upto 100 uM by calcium mobilization assay; assay type: functional, cell-based
Mus musculus [26] = experiment: Antinociceptive activity in Kunming mouse model at 132.2 nmol/kg, sc in presence of NTI by tail-flick test; assay type: functional, organism-based
Mus musculus [27] = experiment: Antinociceptive activity in Kunming mouse model at 132.2 nmol/kg, sc pretreated with NALM subcutaneously followed by compound administration by tail-flick test; assay type: functional, organism-based
Mus musculus [28] = experiment: Antinociceptive activity in Kunming mouse model at 1416 nmol/kg, sc pretreated with NALM intracerebroventricularly followed by compound administration by tail-flick test; assay type: functional, organism-based
Mus musculus [29] = experiment: Antinociceptive activity in Kunming mouse model at 1416 nmol/kg, sc in presence of nor-BNI by tail-flick test; assay type: functional, organism-based
Mus musculus [30] = experiment: Antinociceptive activity in Kunming mouse model at 1416 nmol/kg, sc in presence of NTI by tail-flick test; assay type: functional, organism-based
Mus musculus [31] = experiment: Antinociceptive activity in Kunming mouse model at 1416 nmol/kg, sc pretreated with NALM subcutaneously followed by compound administration by tail-flick test; assay type: functional, organism-based
Mus musculus [32] = experiment: Antinociceptive activity in Kunming mouse model at 1416 nmol/kg, sc in presence of beta-FNA by tail-flick test; assay type: functional, organism-based

T1 sequence (P41145 whole entry): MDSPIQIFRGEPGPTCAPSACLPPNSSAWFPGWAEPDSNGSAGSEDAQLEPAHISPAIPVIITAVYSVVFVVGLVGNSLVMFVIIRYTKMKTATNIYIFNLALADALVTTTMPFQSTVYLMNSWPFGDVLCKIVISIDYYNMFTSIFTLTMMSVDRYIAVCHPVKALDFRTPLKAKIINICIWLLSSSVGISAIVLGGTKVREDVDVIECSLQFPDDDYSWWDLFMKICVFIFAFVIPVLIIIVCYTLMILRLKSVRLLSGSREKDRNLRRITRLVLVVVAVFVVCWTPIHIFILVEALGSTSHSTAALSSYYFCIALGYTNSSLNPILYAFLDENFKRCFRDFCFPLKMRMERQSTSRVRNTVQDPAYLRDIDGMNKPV
Chain of Delta-type opioid receptor (P41143 whole entry): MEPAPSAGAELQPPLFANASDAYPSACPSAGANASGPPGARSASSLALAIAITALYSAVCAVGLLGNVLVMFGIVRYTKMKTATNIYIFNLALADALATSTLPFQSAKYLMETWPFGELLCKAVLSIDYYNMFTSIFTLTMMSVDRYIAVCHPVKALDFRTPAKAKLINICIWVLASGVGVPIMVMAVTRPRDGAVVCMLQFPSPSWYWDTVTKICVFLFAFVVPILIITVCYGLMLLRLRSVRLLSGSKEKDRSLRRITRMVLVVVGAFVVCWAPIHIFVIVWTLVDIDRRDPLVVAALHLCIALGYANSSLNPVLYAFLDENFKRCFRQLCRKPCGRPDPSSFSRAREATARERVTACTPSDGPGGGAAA
Chain of Mu-type opioid receptor (P35372 whole entry): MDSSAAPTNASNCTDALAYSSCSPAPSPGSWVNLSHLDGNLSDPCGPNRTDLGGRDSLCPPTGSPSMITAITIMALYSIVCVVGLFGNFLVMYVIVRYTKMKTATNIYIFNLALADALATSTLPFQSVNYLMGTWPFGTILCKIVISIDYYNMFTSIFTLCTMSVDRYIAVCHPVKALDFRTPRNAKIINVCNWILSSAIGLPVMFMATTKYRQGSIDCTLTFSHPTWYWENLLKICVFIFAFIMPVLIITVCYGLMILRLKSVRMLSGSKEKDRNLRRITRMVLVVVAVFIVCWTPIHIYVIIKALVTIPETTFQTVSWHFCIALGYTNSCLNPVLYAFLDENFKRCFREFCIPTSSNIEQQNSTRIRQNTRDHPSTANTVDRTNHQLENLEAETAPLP

CC1(C)NC(=O)[C@H](NC(=O)[C@@H](N)Cc2ccc(O)cc2)CCCCNC(=O)C[C@H](C(=O)N2CCC[C@H]2C(N)=O)NC(=O)[C@H](Cc2ccccc2)NC1=O
Emax (Mu-type opioid receptor): 100%
Emax [1]: 103%
Activity (Mus musculus [2]): inactive
Emax [3]: 89.2%
Activity (Mus musculus [4]): Active
Activity (Mus musculus [5]): inactive
Activity (Mus musculus [6]): Active
Activity (Mus musculus [7]): inactive

NC(=O)[C@@H]1CCCN1C(=O)[C@H]1CC(=O)NCCCC[C@@H](NC(=O)[C@@H](N)Cc2ccc(O)cc2)C(=O)NCC(=O)N[C@@H](Cc2ccc(F)cc2)C(=O)N1
Activity (Mus musculus [8]): Active
Activity (Mus musculus [9]): Active
Activity (Mus musculus [10]): Active
Emax (Mu-type opioid receptor): 95.3%
Activity (Mus musculus [11]): inactive
Activity (Mus musculus [12]): Active
Emax [1]: 110%
Activity (Mus musculus [13]): Active
Activity (Mus musculus [14]): inactive
Emax [3]: 89.3%
Activity (Mus musculus [15]): inactive
Activity (Mus musculus [16]): inactive
Activity (Mus musculus [17]): inactive

CC1(C)NC(=O)[C@H](NC(=O)[C@@H](N)Cc2ccc(O)cc2)CCCCNC(=O)C[C@@H](C(=O)N2CCC[C@@H]2C(N)=O)NC(=O)[C@H](Cc2ccccc2)NC1=O
MPE (Mus musculus [18]): 46.1%
MPE (Mus musculus [19]): 48.9%
MPE (Mus musculus [20]): 91.1%
MPE (Mus musculus [21]): 69.3%

NC(=O)[C@@H]1CCCN1C(=O)[C@H]1CC(=O)NCCCC[C@@H](NC(=O)[C@@H](N)Cc2ccc(O)cc2)C(=O)NCC(=O)N[C@@H](Cc2ccc3ccccc3c2)C(=O)N1
Activity (Mus musculus [22]): Active
Activity (Mus musculus [23]): inactive
Emax (Mu-type opioid receptor): 98.6%
Activity (Mus musculus [24]): Active
Emax [1]: 110%
Activity [25]: inactive
Activity (Mus musculus [26]): Active
Activity (Mus musculus [27]): inactive

NC(=O)[C@@H]1CCCN1C(=O)[C@H]1CC(=O)NCCCC[C@@H](NC(=O)[C@@H](N)Cc2ccc(O)cc2)C(=O)NCC(=O)N[C@@H](Cc2ccccc2)C(=O)N1
Emax (Mu-type opioid receptor): 109%
Activity (Mus musculus [28]): Active
Activity (Mus musculus [29]): inactive
Emax [1]: 107%
Activity (Mus musculus [30]): Active
Emax [3]: 103%
Activity (Mus musculus [31]): inactive
Activity (Mus musculus [32]): inactive
